Laboratory results taken from paper PMC12016938, “A small molecule PKCε inhibitor reduces hyperalgesia induced by paclitaxel or opioid withdrawal” (JCI Insight, 2025).
“And” between values parts separate entries of the source, which are not always exact repeats. Equal entries are not always repeated.

How the values were obtained:
ROCK1 = ROCK1 (Homo sapiens, UniProt Q13464); test: Lance-FRET kinase assay, ROCK1; format: biochemical; parameters: purchased Carna Biosciences; conditions: mean of all runs (count 42 CP612; 38 CIDD-0072424); 2.5 μM ATP; read-out: IC50 (nM) [Enzyme: ROCK1], mean
Sequence of ROCK1 (Q13464 1-477 limits assumed): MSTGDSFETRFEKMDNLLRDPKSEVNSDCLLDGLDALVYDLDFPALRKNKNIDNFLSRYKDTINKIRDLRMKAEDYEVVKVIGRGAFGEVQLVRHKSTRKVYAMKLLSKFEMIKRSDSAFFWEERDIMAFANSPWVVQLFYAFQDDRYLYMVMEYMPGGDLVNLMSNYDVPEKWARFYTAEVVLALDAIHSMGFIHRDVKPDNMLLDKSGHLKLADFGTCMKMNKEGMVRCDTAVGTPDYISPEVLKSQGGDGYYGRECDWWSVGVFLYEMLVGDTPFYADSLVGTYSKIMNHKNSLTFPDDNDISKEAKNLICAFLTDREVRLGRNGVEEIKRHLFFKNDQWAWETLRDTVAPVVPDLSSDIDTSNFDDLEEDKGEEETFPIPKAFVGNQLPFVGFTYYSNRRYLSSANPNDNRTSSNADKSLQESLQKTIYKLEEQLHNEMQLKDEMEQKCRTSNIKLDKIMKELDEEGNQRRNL
Procedure: (§1) Kinase assays. CP612 was assayed against His-AVI–tagged human PKCε (1 nM) produced in Sf9 cells, and ROCK1 (Carna Biosciences; 5 nM) using the Lance-FRET kinase assay system (PerkinElmer Revvity). Other human recombinant PKCs (SignalChem Biotech) were assayed in triplicate at the following concentrations: PKCβII 1.6 nM, PKCγ 500 pM, PKCδ 5 nM, PKCθ 500 pM, and PKCζ 500 pM. PKCs were incubated in a 15 μL reaction volume with kinase buffer (20 mM Tris-HCL [pH 7.4], 10 mM MgCl2, 0.25 mM EGTA, 0.1 mg/mL BSA, and 0.15% Triton X-100), 50 nM ULight-labeled CREBtide […] (PerkinElmer, TRF0107, Revvity), and test compound. […] After incubation at 27°C for another 60 minutes, phosphorylation was detected using a FlexStation 3 Microplate Reader (Molecular Devices) in LANCE TR-FRET mode (excitation = 340 nm, emission = 665 nm) and expressed as relative fluorescence units (RFU). The percentage of inhibition was calculated as: (signal without test compound − signal with test compound)/(signal without test compound − signal without ATP) × 100. […]
(§2) Kinase assays used 11-point concentration-response curves and results were analyzed by nonlinear regression using Prism 9 (GraphPad Software) to determine IC50 values. […] Scores for pain threshold, conditioned place preference, and self-administration were analyzed by ANOVA using the following factors. […]

CLK1 (CDC Like Kinase 1) = target: T1, CLK1 (CDC Like Kinase 1) (Homo sapiens, UniProt P49759); test: scanMax kinome panel, CLK1; format: binding; conditions: 200 nM CP612; read-out: scanMax % of control, CLK1
T1 construct: purchased Eurofins-DiscoverX
T1 sequence (P49759 whole entry): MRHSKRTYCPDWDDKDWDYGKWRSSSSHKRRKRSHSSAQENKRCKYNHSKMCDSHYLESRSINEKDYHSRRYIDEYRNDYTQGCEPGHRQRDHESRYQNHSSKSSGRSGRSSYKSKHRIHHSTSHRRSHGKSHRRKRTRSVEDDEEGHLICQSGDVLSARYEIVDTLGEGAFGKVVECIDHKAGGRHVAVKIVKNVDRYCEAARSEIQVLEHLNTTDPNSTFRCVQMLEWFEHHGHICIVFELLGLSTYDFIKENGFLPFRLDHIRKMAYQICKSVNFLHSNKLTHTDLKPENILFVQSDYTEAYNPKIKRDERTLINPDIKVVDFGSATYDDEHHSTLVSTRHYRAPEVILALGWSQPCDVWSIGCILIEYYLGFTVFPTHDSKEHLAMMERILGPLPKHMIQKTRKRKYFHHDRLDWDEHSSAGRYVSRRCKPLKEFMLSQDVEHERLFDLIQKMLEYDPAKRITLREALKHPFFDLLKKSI
Procedure: (§3) CP612 was screened for kinome specificity at 200 nM against 468 kinases using the scanMax assay panel from Eurofins-DiscoverX. CP612 inhibited 10 other WT kinases besides PKCε, all to < 10% of control: CLK1 (CDC Like Kinase 1), CLK4, PKN1 (Protein kinase N1), PKN2, PKCδ, PKCη, PKCθ, PRKG2 (Protein Kinase CGMP-Dependent 2), ROCK1, and ROCK2.

PKCγ = target: T2, PKCγ (Homo sapiens, UniProt P05129); test: Lance-FRET kinase assay, PKCγ; format: biochemical; conditions: Figure 1B
T2 construct: purchased SignalChem Biotech
Procedure: as §1, §2

ROCK2 = target: T3, ROCK2 (Homo sapiens, UniProt O75116); test: scanMax kinome panel, ROCK2; format: binding; conditions: 200 nM CP612
T3 construct: purchased Eurofins-DiscoverX
T3 sequence (O75116 whole entry): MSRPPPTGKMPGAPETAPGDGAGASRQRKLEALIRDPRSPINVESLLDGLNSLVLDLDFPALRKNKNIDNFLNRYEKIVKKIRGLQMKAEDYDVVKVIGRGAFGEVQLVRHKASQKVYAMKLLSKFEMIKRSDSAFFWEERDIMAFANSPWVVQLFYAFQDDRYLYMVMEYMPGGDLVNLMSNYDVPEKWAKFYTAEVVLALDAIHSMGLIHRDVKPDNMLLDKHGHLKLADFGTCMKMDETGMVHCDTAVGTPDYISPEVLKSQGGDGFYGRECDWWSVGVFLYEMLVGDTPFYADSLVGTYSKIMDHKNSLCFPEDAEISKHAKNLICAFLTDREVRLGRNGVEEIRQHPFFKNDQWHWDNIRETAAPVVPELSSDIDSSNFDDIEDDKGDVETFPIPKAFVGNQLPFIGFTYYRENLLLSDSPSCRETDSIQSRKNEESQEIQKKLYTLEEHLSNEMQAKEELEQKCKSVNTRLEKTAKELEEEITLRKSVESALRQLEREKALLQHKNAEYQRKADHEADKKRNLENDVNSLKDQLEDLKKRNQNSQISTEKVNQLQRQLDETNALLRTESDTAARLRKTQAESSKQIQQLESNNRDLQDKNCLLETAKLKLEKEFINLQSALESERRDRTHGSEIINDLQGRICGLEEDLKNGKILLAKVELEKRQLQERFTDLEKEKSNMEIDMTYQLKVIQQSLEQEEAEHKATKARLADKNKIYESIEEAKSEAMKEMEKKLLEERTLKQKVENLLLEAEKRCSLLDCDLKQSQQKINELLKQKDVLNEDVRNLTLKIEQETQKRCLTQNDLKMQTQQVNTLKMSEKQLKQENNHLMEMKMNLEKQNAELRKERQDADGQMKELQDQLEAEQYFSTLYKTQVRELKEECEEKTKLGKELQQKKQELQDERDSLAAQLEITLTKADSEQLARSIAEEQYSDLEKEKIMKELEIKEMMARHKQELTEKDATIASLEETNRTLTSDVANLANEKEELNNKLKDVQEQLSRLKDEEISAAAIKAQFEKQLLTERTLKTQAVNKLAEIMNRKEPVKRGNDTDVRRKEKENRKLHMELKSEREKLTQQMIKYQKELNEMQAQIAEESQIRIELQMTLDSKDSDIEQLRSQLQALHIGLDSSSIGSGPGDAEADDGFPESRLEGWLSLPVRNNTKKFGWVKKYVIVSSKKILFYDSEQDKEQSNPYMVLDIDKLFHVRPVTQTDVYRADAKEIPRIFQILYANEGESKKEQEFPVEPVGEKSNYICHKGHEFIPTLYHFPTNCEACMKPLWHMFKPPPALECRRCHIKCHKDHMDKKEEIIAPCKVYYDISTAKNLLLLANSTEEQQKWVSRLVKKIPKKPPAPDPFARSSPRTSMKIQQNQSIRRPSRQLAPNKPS
Procedure: as §3

PKCδ = PKCδ (Homo sapiens, UniProt Q05655); test: scanMax kinome panel, PKCδ; format: binding; parameters: purchased Eurofins-DiscoverX; conditions: 200 nM CP612; read-out: scanMax % of control, PKCδ
Sequence of PKCδ (Q05655 whole entry): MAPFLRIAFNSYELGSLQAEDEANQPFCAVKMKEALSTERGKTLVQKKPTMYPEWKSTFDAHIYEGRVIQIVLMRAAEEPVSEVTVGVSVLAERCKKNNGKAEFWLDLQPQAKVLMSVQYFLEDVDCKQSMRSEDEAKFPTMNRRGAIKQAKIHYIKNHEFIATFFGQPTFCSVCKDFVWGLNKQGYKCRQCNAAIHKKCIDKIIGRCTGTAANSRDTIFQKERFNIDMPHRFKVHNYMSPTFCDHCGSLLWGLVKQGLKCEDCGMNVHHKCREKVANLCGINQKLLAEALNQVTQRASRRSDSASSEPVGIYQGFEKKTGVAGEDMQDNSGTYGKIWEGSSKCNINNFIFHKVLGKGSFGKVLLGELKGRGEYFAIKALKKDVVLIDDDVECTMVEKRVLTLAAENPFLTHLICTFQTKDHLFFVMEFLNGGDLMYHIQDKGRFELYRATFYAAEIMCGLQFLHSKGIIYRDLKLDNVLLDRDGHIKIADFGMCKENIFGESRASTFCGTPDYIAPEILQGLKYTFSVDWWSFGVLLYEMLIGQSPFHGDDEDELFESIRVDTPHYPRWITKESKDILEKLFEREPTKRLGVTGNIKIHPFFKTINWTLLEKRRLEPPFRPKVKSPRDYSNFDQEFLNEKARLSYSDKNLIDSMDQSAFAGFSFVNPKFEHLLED
Procedure: as §3

[1] = tested on: paclitaxel-induced hyperalgesia; test: Paclitaxel-induced hyperalgesia, Randall-Selitto paw pressure test; conditions: for Force applied that led to paw withdrawal: one paw
Procedure: We tested if CP612 reverses this hyperalgesia. Male rats received repeated injections of paclitaxel (1 mg/kg, i.p. on days 1, 3, 5, and 7). Twenty-four hours after the last dose of paclitaxel, rats were administered vehicle (2 mL/kg, i.p.) or CP612 (20 mg/kg, i.p.).
Mechanical nociceptive thresholds in rats were quantified by the Randall-Selitto paw pressure test using an Ugo Basile Analgesy-Meter. This device applies a linearly increasing mechanical force to the dorsum or plantar region of the rat hind paw. The mechanical nociceptive threshold is defined as the force in grams at which a rat withdraws its paw. The higher the force to elicit paw withdrawal, the higher the pain threshold (and the lower the sensitivity to pain). For studies testing nociceptive thresholds after the PKCε activator ψεRACK, or after the cancer chemotherapeutic drug paclitaxel, rats were placed into cylindrical acrylic restrainers for 40 minutes before starting each session. The restrainers had lateral ports to allow access to the hind paw, as previously described ([35]), and pain thresholds were measured by applying force to the dorsum of the hind paw. Prior to starting experiments, baseline mechanical nociceptive threshold was obtained as the mean of 2–3 readings on 1 hind paw in each rat.

PKCε = target: T4, PKCε (Homo sapiens, UniProt Q02156); test: scanMax kinome panel (Eurofins-DiscoverX), PKCε; format: binding; parameters: purchased Eurofins-DiscoverX; conditions: 200 nM CP612
T4 sequence (Q02156 1-737): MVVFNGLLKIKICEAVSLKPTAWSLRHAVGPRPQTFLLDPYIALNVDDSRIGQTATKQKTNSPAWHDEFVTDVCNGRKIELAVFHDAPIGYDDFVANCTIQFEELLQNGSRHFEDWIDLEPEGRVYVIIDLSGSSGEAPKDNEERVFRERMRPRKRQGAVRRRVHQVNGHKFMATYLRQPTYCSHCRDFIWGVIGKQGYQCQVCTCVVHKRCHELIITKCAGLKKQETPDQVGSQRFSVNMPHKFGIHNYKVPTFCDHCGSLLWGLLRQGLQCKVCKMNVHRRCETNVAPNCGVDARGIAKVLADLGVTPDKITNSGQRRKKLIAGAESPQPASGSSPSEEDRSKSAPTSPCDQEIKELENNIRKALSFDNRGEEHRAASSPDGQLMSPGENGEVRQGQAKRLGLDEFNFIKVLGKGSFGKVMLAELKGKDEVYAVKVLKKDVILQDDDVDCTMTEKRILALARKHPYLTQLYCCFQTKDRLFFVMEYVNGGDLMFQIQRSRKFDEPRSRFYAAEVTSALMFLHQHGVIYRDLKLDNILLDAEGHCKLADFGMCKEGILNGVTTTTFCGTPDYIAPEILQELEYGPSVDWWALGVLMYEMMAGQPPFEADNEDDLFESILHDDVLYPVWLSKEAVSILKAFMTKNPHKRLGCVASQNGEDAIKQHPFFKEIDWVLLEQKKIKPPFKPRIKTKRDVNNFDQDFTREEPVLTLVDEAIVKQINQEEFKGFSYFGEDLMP
Procedure: as §3

Compound: N[C@H](CNC(=O)C1(c2ccc(Cl)cc2)CCCC1)c1ccc(C(=O)Nc2ccncc2)cc1 [CP612]
- IC50 (ROCK1): 65.9 ± 10.8 nM
- remaining binding at 0.2 µM (CLK1 (CDC Like Kinase 1)): < 10%
- Inhibition of conventional PKCγ (PKCγ): weakly inhibited
- scanMax % of control, ROCK2 (ROCK2): < 10 % of control
- remaining binding at 0.2 µM (PKCδ): < 10%
- Force applied that led to paw withdrawal ([1]; 0min (24 h after last paclitaxel, before CP612)): 95 grams and 102.5 grams and 100 grams and 97.5 grams and 101.7 grams
- Force applied that led to paw withdrawal ([1]; 15min after CP612 20 mg/kg intraperitoneally, 20 mg/kg): 120 grams and 125 grams and 110 grams and 115 grams and 117.5 grams
- Force applied that led to paw withdrawal ([1]; 30min after CP612 20 mg/kg intraperitoneally, 20 mg/kg): 110 grams and 122.5 grams and 117.5 grams and 112.5 grams
- Force applied that led to paw withdrawal ([1]; 60min after CP612 20 mg/kg intraperitoneally, 20 mg/kg): 111.7 grams and 120 grams and 116.7 grams and 113.3 grams and 121.7 grams
- Force applied that led to paw withdrawal ([1]; 120min after CP612 20 mg/kg intraperitoneally, 20 mg/kg): 101.7 grams and 116.7 grams and 111.7 grams and 103.3 grams and 96.7 grams and 115 grams
- Force applied that led to paw withdrawal ([1]; 24h after CP612 20 mg/kg intraperitoneally, 20 mg/kg): 85 grams and 116.7 grams and 90 grams and 91.7 grams and 96.7 grams
- Force applied that led to paw withdrawal ([1]; baseline (before paclitaxel and CP612)): 127.5 grams and 125 grams and 140 grams
- Effect on paclitaxel-induced hyperalgesia ([1]; male rats, CP612 20 mg/kg i.p., 15, 30, 60 and 120 minutes): attenuated
- Decrease in paclitaxel-induced hyperalgesia 1 day after CP612 ([1]; male rats, CP612 20 mg/kg i.p., 24 hours): dissipated
- scanMax result, PKCε (PKCε): inhibited
